Patent US20020115642A1, “Beta-lactam antibiotics” (priority 2000, published 2002)
In brackets after ≈: the same amount, converted by molar mass.

Experiments:
P. aeruginosa = assay: Susceptibility testing (MIC, modified NCCLS method); type: cell-based, Pseudomonas aeruginosa
Summary of the method: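 Growth inhibition was scored by optical density increase at 600 nm. Bacteria in broth were added at roughly 1-1.5×10^6 cells/ml to 20 twofold serial dilutions of compound, prepared from water or DMSO stocks. The NCCLS MIC procedure was modified for high throughput.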

[1] = tested on: S. aureus clinical isolates; assay: MIC by agar dilution, recent clinical isolates (UCSD Medical Center); type: cell-based, Staphylococcus aureus; settings: MRSA (17)

With `O=C(Cc1cccs1)N[C@@H]1C(=O)N2C(C(=O)O)=C(COc3cc(Cl)ccc3Oc3ccc(Cl)cc3Cl)CS[C@H]12` [Compound 9, 3-(2-(2,4-Dichlorophenoxy)-5-chlorophenoxy)methyl-7-(2-thienylacetamido)-3-cephem-4-carboxylic acid] the “activity against P. aeruginosa” value (P. aeruginosa) was “no activity”, the MIC range (P. aeruginosa; P. aeruginosa (7)) was over 15.6 µg/mL and the MIC (P. aeruginosa; Pseudomonas aeruginosa, P. aeruginosa (7), read-out: GM* MIC (geometric mean)) was over 15.6 µg/mL. For the same compound, the MIC range [1] was 0.08 to 0.6 µg/mL, the MIC50 ([1]; Staphylococcus aureus) was 0.08 µg/mL (≈ 0.128 µM) and the MIC90 ([1]; Staphylococcus aureus) was 0.3 µg/mL (≈ 0.479 µM).
